The values below come from patent US7098334B2 (Industrial Research Limited, priority 2002, dated 2006).

Counter-ions that a name gives are not always drawn. Like-named read-outs stand apart in the source and are kept apart here.

Assay [1] addresses MTAN (Escherichia coli, UniProt P0AF12). The assay is described as follows: Enzyme inhibition assay, MTAN (slow-onset inhibition constants). The assay is classed as biochemical. To be noted: for Ki: MTAN. Here is the method: (§1) Ki as shown in Tables 1 and 2 is the initial inhibition constant formed by the enzyme-inhibitor complex, and Ki* is the equilibrium dissociation constant for inhibition that is observed following a period of slow-onset, tight binding inhibition. Ki* is the biologically effective constant.
(§2) Enzyme assays were conducted to assess the effectiveness of selected compounds of the invention as inhibitors of MTAP and MTAN.
(§3) Inhibitors.—Inhibitor concentrations were determined by the UV absorbance spectrum using the published millimolar extinction coefficients for 9-dazadenine of 8.5 at 275 nm at pH 7.0.
(§4) Assays.—The direct spectrophotometric assay for the conversion of MTA into adenine was measured as the decrease in absorbance at 274 nm. At 274 nm, Δε between MTA and adenine is at a maximum and produces a spectral change of 1.6 absorbance units/cm/mM (DeWolf, W. E. Jr., Fullin, F. A., and Schramm, V. L. (1979) J. Biol. Chem. 254, 10868–10875)
Slow-Onset Inhibition and Inhibition Constants.—The kinetics for slow onset inhibition and the Ki measurement was carried out by adding a known concentration of enzyme (1–5 nM) to a reaction mixture containing a substrate concentration of 200 μM. This concentration corresponds to an OD of 0.7–1.1 at […]. The formation of product was monitored as a decrease in absorbance at 274 nm. Conditions for Ki* determination used high concentrations of substrate. Two controls, one having no inhibitor and the other no enzyme were included in the experiment. The Ki values MTAP for the various compounds were calculated by fitting in the ratio of initial rates in the presence of inhibitor to without any inhibitor versus the inhibitor concentration, for the known Km and substrate concentration into the following expression.
(§5) Where Vo′ is the rate in the presence of inhibitor • Vo rate in the absence of inhibitor • [I] inhibitor concentration • And [S] is the substrate concentration
(§6) And the Ki* was calculated by fitting to the following expression
(§7) Where Vs′ is the steady-state rate following attainment of equilibrium in the presence inhibitor, and Vs is the steady-state rate in the control having no inhibitor. Both these equations are valid for competitive type inhibition.

In assay [2] the target is T1, human MTAP (Homo sapiens, UniProt Q13126).
T1 construct: inferred from pQE32 vector and Ni-NTA purification) (N); made in house; host or cells: E. coli
T1 sequence (Q13126 1-283): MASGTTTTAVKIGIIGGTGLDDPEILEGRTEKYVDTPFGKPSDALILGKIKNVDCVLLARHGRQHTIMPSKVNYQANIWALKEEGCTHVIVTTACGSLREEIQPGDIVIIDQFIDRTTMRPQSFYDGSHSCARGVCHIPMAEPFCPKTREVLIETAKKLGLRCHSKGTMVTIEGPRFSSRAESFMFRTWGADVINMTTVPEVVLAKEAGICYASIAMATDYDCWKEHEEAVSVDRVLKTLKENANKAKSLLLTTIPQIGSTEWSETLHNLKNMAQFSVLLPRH
The assay is described as follows: Enzyme inhibition assay, MTAP (slow-onset inhibition constants). The class given is biochemical. To be noted: for Ki: MTAP. Here is the method: as §1, §2
Enzymes.—The human MTAP protein was cloned into pQE32 expression vector and transformed into E. coli. Induction cultures containing 1 L (25 mg/L) and 50 μg/mL ampicillin were inoculated with 1 mL overnight grown starter-culture and incubated at 37° C. When the cultures reached an OD of ≈0.6 they were induced with 1.5 mM IPTG for 6 to 8 hours. Cells were harvested by centrifugation at 5000 rpm for 30 min, and subsequently resuspended in a buffer (20 mM imidazole, 300 mM NaCl, 0.2 mM phenylmethylsulfonyl fluoride (PMSF), 100 mM Tris, pH 8.0) containing a small amount of lysozyme to weaken the cell membrane. Cells were lysed with a French press. The insoluble material was removed by high-speed centrifugation. The cell extract was further clarified with 35% ammonium sulfate precipitation followed by high-speed centrifugation. The clarified cell extract was then applied to a 5 mL Ni-NTA column that had previously been equilibrated with the binding buffer. Further chromatographic steps were carried out by FPLC. The column was washed with 10 volumes of 50 mM imidazole, 300 mM NaCl, and 100 mM Tris, pH 8.0, and the protein was eluted with a buffer containing a 50–250 mM gradient of imidazole, 300 mM NaCl, 1 M Tris, pH 8.0. The purity of the protein was verified by running polyacrylamide gel followed by Coomassie staining. The protein was subsequently dialyzed in 50 mM NaCl, 2 mM dithiothreitol (DTT) and 50 mM Tris, pH 7.4, and was concentrated to 10 mg/mL. The purified protein was stored at −80° C. in 100 μL to 150 μL aliquots.
as §3, §4
This concentration corresponds to an OD of 0.7–1.1 at 274 nM. The formation of product was monitored as a decrease in absorbance at 274 nm. Conditions for Ki* determination used high concentrations of substrate. Two controls, one having no inhibitor and the other no enzyme were included in the experiment. The Ki values MTAP for the various compounds were calculated by fitting in the ratio of initial rates in the presence of inhibitor to without any inhibitor versus the inhibitor concentration, for the known Km and substrate concentration into the following expression.
as §5, §6, §7

[3] abbreviates: equilibrium dissociation constant after slow-onset, tight binding inhibition, read-out: Ki*.
The mark [4] stands for this setting: initial inhibition constant, read-out: Ki.
Setting [5] is: Ki*, equilibrium dissociation constant after slow-onset, tight binding inhibition.
Setting [6] is: Ki, initial inhibition constant.

Sequence of MTAN (P0AF12 whole entry): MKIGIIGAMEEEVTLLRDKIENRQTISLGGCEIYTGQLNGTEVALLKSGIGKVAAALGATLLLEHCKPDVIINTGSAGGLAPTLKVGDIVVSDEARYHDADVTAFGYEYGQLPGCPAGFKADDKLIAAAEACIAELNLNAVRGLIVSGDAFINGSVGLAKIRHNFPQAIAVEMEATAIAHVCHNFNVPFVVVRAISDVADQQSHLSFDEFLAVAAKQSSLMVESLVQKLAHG

As usually defined, the Ki is the equilibrium dissociation constant of an inhibitor or competing ligand from its target. Regarding `Nc1ncnc2c([C@@H]3N[C@H](CSc4ccccc4)[C@H](O)C3O)c[nH]c12` (stereo partly shown), the Ki is 0.032 ± 0.002 nM in assay [1] (setting [3]), 0.046 ± 0.003 nM in assay [1] (setting [4]), 0.082 ± 0.009 nM in assay [2] (setting [3]) and 0.89 ± 0.12 nM in assay [2] (setting [4]).

For `Nc1ncnc2c([C@@H]3N[C@H](CSc4cccc(Cl)c4)[C@H](O)C3O)c[nH]c12` (stereo partly drawn) [5′-(m-Chloro-Phenyl-thio)-ImmA, (1S)-1-(9-Deazaadenin-9-yl)-5-(3-chlorophenyl)thio-1,4-dideoxy-1,4-imino-D-ribitol], the Ki was 0.02 ± 0.002 nM in assay [1] (setting [5]), 0.044 ± 0.004 nM in assay [1] (setting [6]) and 4 ± 0.4 nM in assay [2] (setting [4]).

Take `Cc1cccc(SC[C@H]2N[C@@H](c3c[nH]c4c(N)ncnc34)C(O)[C@H]2O)c1` (stereo partly shown) [5′-(m-tolylthio)-ImmA]: the Ki in assay [1] (setting [5]) amounted to 0.009 ± 0.001 nM; in assay [1] (setting [6]), 0.015 ± 0.0006 nM; in assay [2] (setting [3]) it was 0.146 ± 0.048 nM; in assay [2] (setting [4]) it was 0.602 ± 0.032 nM.

On to `Nc1ncnc2c([C@@H]3N[C@H](CSc4ccc(Cl)cc4)[C@H](O)C3O)c[nH]c12` (stereo partly drawn) [5′-(p-Chloro-Phenyl-thio)-ImmA, (1S)-1-(9-Deazaadenin-9-yl)-5-(4-chlorophenyl)thio-1,4-dideoxy-1,4-imino-D-ribitol], for which the Ki in assay [1] (setting [5]) is 0.006 nM; in assay [1] (setting [6]) it was 0.006 ± 0.0003 nM; in assay [2] (setting [3]), 0.09 ± 0.02 nM; in assay [2] (setting [4]), 0.334 ± 0.036 nM.

As for `Nc1ncnc2c([C@@H]3N[C@H](CSc4ccc(F)cc4)[C@H](O)C3O)c[nH]c12` (stereo partly shown) [5′-(p-Fluoro-phenyl-thio)-ImmA], the Ki was found to be 0.02 ± 0.004 nM in assay [1] (setting [5]), 0.082 ± 0.007 nM in assay [1] (setting [6]) and 3 ± 0.2 nM in assay [2] (setting [4]).

As to `Cc1ccc(SC[C@H]2N[C@@H](c3c[nH]c4c(N)ncnc34)C(O)[C@H]2O)cc1` (stereo partly shown) [5′-(p-tolylthio)-ImmA], the Ki in assay [1] (setting [5]) was 0.008 ± 0.001 nM; in assay [1] (setting [6]), 0.018 ± 0.001 nM; in assay [2] (setting [3]), 0.252 ± 0.023 nM; in assay [2] (setting [4]) it was 1.6 ± 0.2 nM.

With `Nc1ncnc2c([C@@H]3N[C@H](CSCc4ccccc4)[C@H](O)C3O)c[nH]c12` (stereo partly drawn) [5′-Benzylthio-ImmA, (1S)-1-(9-Deazaadenin-9-yl)-5-benzylthio-1,4-dideoxy-1,4-imino-D-ribitol], the inhibitory constant (Ki) in assay [1] (setting [5]) was 0.012 ± 0.001 nM; in assay [1] (setting [6]) it was 0.038 ± 0.003 nM; in assay [2] (setting [4]), 12 ± 1 nM.

With `CCSC[C@H]1N[C@@H](c2c[nH]c3c(N)ncnc23)C(O)[C@H]1O` (stereo partly shown) [5′-Ethylthio-ImmA], the inhibitory constant (Ki) in assay [1] (setting [5]) came out at 0.027 ± 0.0003 nM; in assay [1] (setting [6]), 0.073 ± 0.011 nM; in assay [2] (setting [3]), 0.26 ± 0.015 nM; in assay [2] (setting [4]) it was 18 ± 2 nM.

As for `Nc1ncnc2c([C@@H]3N[C@H](CSCCF)[C@H](O)C3O)c[nH]c12` (stereo partly shown) [5′-Fluoroethylthio-ImmA], the Ki in assay [1] (setting [5]) was 0.03 ± 0.003 nM; in assay [1] (setting [6]), 0.103 ± 0.011 nM; in assay [2] (setting [3]), 1.5 ± 0.17 nM; in assay [2] (setting [4]), 7 ± 0.5 nM.

As for `Nc1ncnc2c([C@@H]3N[C@H](CSCCO)[C@H](O)C3O)c[nH]c12` (stereo partly shown) [5′-Hydroxyethylthio-ImmA], the inhibition constant (Ki) turned out to be 0.407 ± 0.016 nM in assay [1] (setting [6]) and 22 ± 2 nM in assay [2] (setting [4]).

As to `COC[C@H]1N[C@@H](c2c[nH]c3c(N)ncnc23)[C@H](O)[C@@H]1O` [5′-Methoxy-ImmA, (1S)-1-(9-deazaadenin-9-yl)-1,4-dideoxy-1,4-imino-5-O-methyl-D-ribitol hydrochloride], the inhibition constant Ki is 10 ± 1 nM in assay [1] (setting [6]) and 70 ± 5 nM in assay [2] (setting [4]).

Take `Nc1ncnc2c([C@@H]3N[C@H](CSc4cccc5ccccc45)[C@H](O)C3O)c[nH]c12` (stereo partly shown) [5′-Napthylthio-ImmA]: the Ki in assay [1] (setting [6]) was found to be 0.75 ± 0.033 nM; in assay [2] (setting [4]) it was 52 ± 5 nM.

Take `CCC[C@H]1N[C@@H](c2c[nH]c3c(N)ncnc23)[C@H](O)[C@@H]1O` [5′-deoxy-5′-ethyl-ImmA, (1S)-1-(9-Deazaadenin-9-yl)-1,4,5-trideoxy-5-ethyl-1,4-imino-D-ribitol]: the Ki amounted to 0.038 ± 0.005 nM in assay [1] (setting [3]) and 0.121 ± 0.005 nM in assay [1] (setting [4]).

Turning to `C[C@H]1N[C@@H](c2c[nH]c3c(N)ncnc23)[C@H](O)[C@@H]1O` [5′-deoxy-ImmA, (1S)-1-(9-deazaadenin-9-yl)-1,4,5-trideoxy-1,4-imino-D-ribitol hydrochloride], the Ki was 13 ± 1 nM in assay [1] (setting [6]) and 220 ± 14 nM in assay [2] (setting [4]).

In the case of `CSC[C@H]1N[C@@H](c2n[nH]c3c(N)ncnc23)C(O)[C@H]1O` (stereo partly drawn) [5′-methylthio-8-aza-ImmA, (1S)-1-(7-Amino-1H-pyrazolo[4,3-d]pyrimidin-3-yl)-1,4-dideoxy-1,4-imino-5-methylthio-D-ribitol], the Ki was 0.026 ± 0.0003 nM in assay [1] (setting [5]), 0.055 ± 0.003 nM in assay [1] (setting [6]), 0.76 ± 0.14 nM in assay [2] (setting [3]) and 7 ± 1 nM in assay [2] (setting [4]).

`Nc1ncnc2c([C@@H]3N[C@H](CO)C(O)C3O)c[nH]c12` (stereo partly shown) [Immucillin A, reference compound]: the “inhibition of MTAP (in words)” value in assay [2] is “no inhibition”.

Consider `CSC[C@H]1N[C@@H](c2c[nH]c3c(=O)[nH]cnc23)C(O)C1O` (stereo partly shown) [methylthio-ImmH, reference compound], for which the “inhibition of MTAN (in words)” value in assay [1] was “no inhibition”.
